*1 amine or outer side, *2 acyl side, *3 side chain or, on linkers, in order; H or OH if unused. Where a SMILES comes first, the peptide text is derived from it. Side-chain parts run from the residue outwards. [ ]: non-standard residue; d: D form. The star is where a group is joined. C18 diacid = O=C(O)CCCCCCCCCCCCCCCCC(=O)*; C16 diacid = O=C(O)CCCCCCCCCCCCCCC(=O)*; γGlu = O=C(O)[C@H](CCC(=O)[*:2])N[*:1]; NMeI = CC[C@H](C)[C@H](NC)C(=O)O; αMeL = CC(C)C[C@](C)(N)C(=O)O; Ac5c = NC1(C(=O)O)CCCC1; Pentanoyl = CCCCC(=O)*; AEEA = NCCOCCOCC(=O)O; Aib = CC(C)(N)C(=O)O
Key:
CFR1R receptor = molecular target: T1, CFR1R receptor (Homo sapiens, UniProt P34998); assay: Activity at anti-target CFR1R receptor, cAMP assay in CRF1R-overexpression CHO-K1 cells; assay type: cell-based; conditions: 100% = Sauvagine at 100 nM; for EC50: cAMP
T1 construct: host or cells: CHO-K1 (clone 2)
T1 sequence (P34998 24-415): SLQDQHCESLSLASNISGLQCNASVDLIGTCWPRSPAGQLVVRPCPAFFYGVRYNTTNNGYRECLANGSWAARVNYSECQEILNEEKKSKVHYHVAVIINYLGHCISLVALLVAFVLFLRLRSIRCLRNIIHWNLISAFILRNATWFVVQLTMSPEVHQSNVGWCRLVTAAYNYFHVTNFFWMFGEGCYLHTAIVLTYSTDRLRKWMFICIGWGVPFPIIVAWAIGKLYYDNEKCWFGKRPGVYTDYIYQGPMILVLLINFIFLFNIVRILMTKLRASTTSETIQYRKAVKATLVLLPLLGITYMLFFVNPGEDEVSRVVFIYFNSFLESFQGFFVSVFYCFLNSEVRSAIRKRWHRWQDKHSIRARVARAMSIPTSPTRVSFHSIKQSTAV
Method in brief: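 The method mirrors that used with TeloHAEC cells. Here, thawed clone 2 cells seeded at 4000 cells/well are tested, and 100 nM Sauvagine sets the top of the activation scale.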

human CRF2a receptor = molecular target: T2, human CRF2a receptor (Homo sapiens, UniProt Q13324); assay: Activity at human CRF2a receptor, cAMP functional assay in TeloHEAC cells; assay type: cell-based; conditions: TeloHEAC cells stably expressing human CRF2a receptor, relative to urocortin 2 (100 nM = 100%)
T2 construct: expressed in transfected cells; host or cells: TeloHEAC cells
T2 sequence (Q13324 1-411): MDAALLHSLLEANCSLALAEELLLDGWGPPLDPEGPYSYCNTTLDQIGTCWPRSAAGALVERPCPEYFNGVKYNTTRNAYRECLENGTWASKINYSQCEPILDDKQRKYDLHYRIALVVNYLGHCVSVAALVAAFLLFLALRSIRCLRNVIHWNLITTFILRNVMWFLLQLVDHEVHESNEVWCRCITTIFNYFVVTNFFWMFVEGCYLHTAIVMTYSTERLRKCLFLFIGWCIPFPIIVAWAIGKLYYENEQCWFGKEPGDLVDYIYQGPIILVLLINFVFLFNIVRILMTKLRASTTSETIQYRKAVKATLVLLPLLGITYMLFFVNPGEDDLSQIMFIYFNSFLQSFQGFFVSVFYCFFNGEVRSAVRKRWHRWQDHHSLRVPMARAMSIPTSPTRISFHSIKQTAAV
Method in brief: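 TeloHEAC cells stably expressing human CRF2a (10000 cells/well, suspended in HBSS/20 mM HEPES with 2 mM IBMX) were exposed to compounds for 30 min at 37 °C. cAMP was read as the 665/620 nm fluorescence ratio after 1 h at room temperature. EC50 was derived relative to 100 nM urocortin 2, set as 100%.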

SMILES	Emax (% I) (CFR1R receptor)	EC50 (CFR1R receptor)	EC50 (human CRF2a receptor)
CC[C@H](C)[C@H](NC(C)=O)C(=O)N[C@H](C(=O)N[C@@H](CC(C)C)C(=O)N[C@@H](CO)C(=O)N[C@@H](CC(C)C)C(=O)N[C@@H](CC(=O)O)C(=O)N[C@@H](C(=O)N1CCC[C@H]1C(=O)N[C@H](C(=O)N[C@@H](CCCCN)C(=O)N[C@@H](CC(C)C)C(=O)N[C@@H](CCCCNC(=O)COCCOCCNC(=O)CC[C@H](NC(=O)CC[C@H](NC(=O)CCCCCCCCCCCCCCCCC(=O)O)C(=O)O)C(=O)O)C(=O)N[C@@H](CCCCN)C(=O)N[C@H](C(=O)N[C@@H](CC(C)C)C(=O)N[C@@H](CC(C)C)C(=O)N[C@@H](CCC(=O)O)C(=O)N[C@@H](CCC(N)=O)C(=O)N[C@@H](CCC(=O)O)C(=O)N[C@@H](CCCCN)C(=O)N[C@@H](CCC(N)=O)C(=O)N[C@@H](CCCCN)C(=O)N[C@@H](CCCCN)C(=O)N[C@@H](CCC(N)=O)C(=O)N[C@@H](CCCNC(=N)N)C(=O)N[C@@H](CCC(=O)O)C(=O)N[C@@H](CCC(N)=O)C(=O)N[C@@H](C)C(=O)N[C@@H](CCC(=O)O)C(=O)N[C@H](C(=O)N[C@@H](CC(N)=O)C(=O)NC(C)(C)C(=O)N[C@@H](CCC(N)=O)C(=O)N[C@H](C(=O)N[C@@H](CC(C)C)C(=O)N[C@@H](C)C(=O)N[C@@H](CCC(N)=O)C(=O)N[C@H](C(N)=O)C(C)C)[C@@H](C)CC)[C@@H](C)O)[C@@H](C)CC)[C@@H](C)CC)C(C)C)C(C)C [compound 205] (Ac-IVLSLD[dV]PIKLK([AEEA-γGlu-γGlu-C18 diacid])KILLEQEKQKKQREQAETN[Aib]QILAQV-NH2)	1 % I	> 250 nM	1.43 nM
CC[C@H](C)[C@H](NC)C(=O)N[C@H](C(=O)N[C@@H](CC(C)C)C(=O)N[C@@H](CO)C(=O)N[C@@H](CC(C)C)C(=O)N[C@@H](CC(=O)O)C(=O)N[C@@H](C(=O)N1CCC[C@H]1C(=O)N[C@H](C(=O)N[C@@H](CCCCN)C(=O)N[C@@H](CC(C)C)C(=O)N[C@@H](CCCCNC(=O)CC[C@H](NC(=O)CCCCCCCCCCCCCCCCC(=O)O)C(=O)O)C(=O)N[C@@H](CCCCN)C(=O)N[C@H](C(=O)N[C@@H](CC(C)C)C(=O)N[C@@H](CC(C)C)C(=O)N[C@@H](CCC(=O)O)C(=O)N[C@@H](CCC(N)=O)C(=O)N[C@@H](CCC(=O)O)C(=O)N[C@@H](CCCCN)C(=O)N[C@@H](CCC(N)=O)C(=O)N[C@@H](CCCCN)C(=O)N[C@@H](CCCCN)C(=O)N[C@@H](CCC(N)=O)C(=O)N[C@@H](CCCNC(=N)N)C(=O)N[C@@H](CCC(=O)O)C(=O)N[C@@H](CCC(N)=O)C(=O)N[C@@H](C)C(=O)N[C@@H](CCC(=O)O)C(=O)N[C@H](C(=O)N[C@@H](CC(N)=O)C(=O)NC(C)(C)C(=O)N[C@@H](CCC(N)=O)C(=O)N[C@H](C(=O)N[C@@H](CC(C)C)C(=O)N[C@@H](C)C(=O)N[C@@H](CCC(N)=O)C(=O)N[C@H](C(N)=O)C(C)C)[C@@H](C)CC)[C@@H](C)O)[C@@H](C)CC)[C@@H](C)CC)C(C)C)C(C)C [compound 137] (H-[NMeI]VLSLD[dV]PIKLK([γGlu-C18 diacid])KILLEQEKQKKQREQAETN[Aib]QILAQV-NH2)	9 % I	> 250 nM	0.07 nM
CC[C@H](C)[C@H](NC(C)=O)C(=O)N[C@H](C(=O)N[C@@H](CC(C)C)C(=O)N[C@@H](CO)C(=O)N[C@@H](CC(C)C)C(=O)N[C@@H](CC(=O)O)C(=O)N[C@@H](C(=O)N1CCC[C@H]1C(=O)N[C@H](C(=O)N[C@@H](CCCCN)C(=O)N[C@@H](CC(C)C)C(=O)N[C@@H](CCCCNC(=O)CC[C@H](NC(=O)CCCCCCCCCCCCCCC(=O)O)C(=O)O)C(=O)N[C@@H](CCCCN)C(=O)N[C@H](C(=O)N[C@@H](CC(C)C)C(=O)N[C@@H](CC(C)C)C(=O)N[C@@H](CCC(=O)O)C(=O)N[C@@H](CCC(N)=O)C(=O)N[C@@H](CCC(=O)O)C(=O)N[C@@H](CCCCN)C(=O)N[C@@H](CCC(N)=O)C(=O)N[C@@H](CCCCN)C(=O)N[C@@H](CCCCN)C(=O)N[C@@H](CCC(N)=O)C(=O)N[C@@H](CCCNC(=N)N)C(=O)N[C@@H](CCC(=O)O)C(=O)N[C@@H](CCC(N)=O)C(=O)N[C@@H](C)C(=O)N[C@@H](CCC(=O)O)C(=O)N[C@H](C(=O)N[C@@H](CC(N)=O)C(=O)NC1(C(=O)N[C@@H](CCC(N)=O)C(=O)N[C@H](C(=O)N[C@@H](CC(C)C)C(=O)N[C@@H](C)C(=O)N[C@@H](CCC(N)=O)C(=O)N[C@H](C(N)=O)C(C)C)[C@@H](C)CC)CCCC1)[C@@H](C)O)[C@@H](C)CC)[C@@H](C)CC)C(C)C)C(C)C [compound 60] (Ac-IVLSLD[dV]PIKLK([γGlu-C16 diacid])KILLEQEKQKKQREQAETN[Ac5c]QILAQV-NH2)	5 % I	> 250 nM	0.34 nM
CC[C@H](C)[C@H](NC(C)=O)C(=O)N[C@H](C(=O)N[C@@H](CC(C)C)C(=O)N[C@@H](CO)C(=O)N[C@@H](CC(C)C)C(=O)N[C@@H](CC(=O)O)C(=O)N[C@@H](C(=O)N1CCC[C@H]1C(=O)N[C@H](C(=O)N[C@@H](CCCCN)C(=O)N[C@@](C)(CC(C)C)C(=O)N[C@@H](CCCCNC(=O)CC[C@H](NC(=O)CCCCCCCCCCCCCCC(=O)O)C(=O)O)C(=O)N[C@@H](CCCCN)C(=O)N[C@H](C(=O)N[C@@H](CC(C)C)C(=O)N[C@@H](CC(C)C)C(=O)N[C@@H](CCC(=O)O)C(=O)N[C@@H](CCC(N)=O)C(=O)N[C@@H](CCC(=O)O)C(=O)N[C@@H](CCCCN)C(=O)N[C@@H](CCC(N)=O)C(=O)N[C@@H](CCCCN)C(=O)N[C@@H](CCCCN)C(=O)N[C@@H](CCC(N)=O)C(=O)N[C@@H](CCCNC(=N)N)C(=O)N[C@@H](CCC(=O)O)C(=O)N[C@@H](CCC(N)=O)C(=O)N[C@@H](C)C(=O)N[C@@H](CCC(=O)O)C(=O)N[C@H](C(=O)N[C@@H](CC(N)=O)C(=O)N[C@H](C(=O)N[C@@H](CCC(N)=O)C(=O)N[C@H](C(=O)N[C@@H](CC(C)C)C(=O)N[C@@H](C)C(=O)N[C@@H](CCC(N)=O)C(=O)N[C@H](C(N)=O)C(C)C)[C@@H](C)CC)C(C)C)[C@@H](C)O)[C@@H](C)CC)[C@@H](C)CC)C(C)C)C(C)C [compound 50] (Ac-IVLSLD[dV]PIK[αMeL]K([γGlu-C16 diacid])KILLEQEKQKKQREQAETNVQILAQV-NH2)	9 % I	> 250 nM	0.26 nM
CCCCC(=O)N[C@H](C(=O)N[C@@H](CC(C)C)C(=O)N[C@@H](CO)C(=O)N[C@@H](CC(C)C)C(=O)N[C@@H](CC(=O)O)C(=O)N[C@@H](C(=O)N1CCC[C@H]1C(=O)N[C@H](C(=O)N[C@@H](CCCCN)C(=O)N[C@@H](CC(C)C)C(=O)N[C@@H](CCCCNC(=O)CC[C@H](NC(=O)CCCCCCCCCCCCCCC(=O)O)C(=O)O)C(=O)N[C@@H](CCC(N)=O)C(=O)N[C@H](C(=O)N[C@@H](CC(C)C)C(=O)N[C@@H](CC(C)C)C(=O)N[C@@H](CCCCN)C(=O)N[C@@H](CCC(N)=O)C(=O)N[C@@H](CCC(=O)O)C(=O)N[C@@H](CCCNC(=N)N)C(=O)N[C@@H](CCC(N)=O)C(=O)N[C@@H](CCCCN)C(=O)N[C@@H](CCCCN)C(=O)N[C@@H](CCC(N)=O)C(=O)N[C@@H](CCCNC(=N)N)C(=O)N[C@@H](CCC(=O)O)C(=O)N[C@@H](CCC(N)=O)C(=O)N[C@@H](C)C(=O)N[C@@H](CCC(=O)O)C(=O)N[C@@H](CCCCN)C(=O)N[C@@H](CC(N)=O)C(=O)N[C@@H](CCCCN)C(=O)N[C@@H](CCC(N)=O)C(=O)N[C@H](C(=O)N[C@@H](CC(C)C)C(=O)N[C@@H](CCC(=O)O)C(=O)N[C@@H](CCC(N)=O)C(=O)N[C@H](C(N)=O)C(C)C)[C@@H](C)CC)[C@@H](C)CC)[C@@H](C)CC)C(C)C)C(C)C [compound 8] (Pentanoyl-VLSLD[dV]PIKLK([γGlu-C16 diacid])QILLKQERQKKQREQAEKNKQILEQV-NH2)	50 % I	–	0.14 nM
